Source: ChEMBL document CHEMBL1137657, “Identification of 16S rRNA methylase-producing Acinetobacter baumannii clinical strains in North America” (2007)
The source made the active and inactive calls. No cut-off for these calls is given here.

Legend:
Acinetobacter baumannii [1] = test: Antimicrobial activity against colistin-resistant Acinetobacter baumannii 213 transconjugant with 16S rRNA methylase armA gene expressing Acinetobacter baumannii isolate D; format: functional, organism-based
Acinetobacter baumannii [2] = test: Antimicrobial activity against colistin-resistant Acinetobacter baumannii 213 transconjugant with 16S rRNA methylase armA gene expressing Acinetobacter baumannii isolate E; format: functional, organism-based
Acinetobacter baumannii [3] = test: Antibacterial activity against Acinetobacter baumannii isolate A expressing 16S rRNA methylase armA gene; format: functional
Acinetobacter baumannii [4] = test: Antibacterial activity against Acinetobacter baumannii isolate B expressing 16S rRNA methylase armA gene; format: functional
Acinetobacter baumannii [5] = test: Antibacterial activity against Acinetobacter baumannii isolate C expressing 16S rRNA methylase armA gene; format: functional
Acinetobacter baumannii [6] = test: Antibacterial activity against Acinetobacter baumannii isolate D expressing 16S rRNA methylase armA gene; format: functional
Acinetobacter baumannii [7] = test: Antibacterial activity against Acinetobacter baumannii isolate E expressing 16S rRNA methylase armA gene; format: functional
Escherichia coli [8] = test: Antibacterial activity against Escherichia coli DH10B expressing Acinetobacter baumannii isolate B 16S rRNA methylase armA gene; format: functional; details: K-12 substr. DH10B
Acinetobacter baumannii [9] = test: Antibacterial activity against armA knockout Acinetobacter baumannii 231; format: functional, organism-based
Escherichia coli [10] = test: Antimicrobial activity against azide-resistant Escherichia coli J53 transconjugant with 16S rRNA methylase armA gene expressing Acinetobacter baumannii isolate A; format: functional, organism-based
Escherichia coli [11] = test: Antimicrobial activity against azide-resistant Escherichia coli J53 transconjugant with 16S rRNA methylase armA gene expressing Acinetobacter baumannii isolate B; format: functional, organism-based
Escherichia coli [12] = test: Antimicrobial activity against azide-resistant Escherichia coli J53 transconjugant with 16S rRNA methylase armA gene expressing Acinetobacter baumannii isolate C; format: functional, organism-based
Escherichia coli [13] = test: Antimicrobial activity against azide-resistant Escherichia coli J53 transconjugant with 16S rRNA methylase armA gene expressing Acinetobacter baumannii isolate D; format: functional, organism-based
Escherichia coli [14] = test: Antimicrobial activity against azide-resistant Escherichia coli J53 transconjugant with 16S rRNA methylase armA gene expressing Acinetobacter baumannii isolate E; format: functional, organism-based
Acinetobacter baumannii [15] = test: Antimicrobial activity against colistin-resistant Acinetobacter baumannii 213 transconjugant with 16S rRNA methylase armA gene expressing Acinetobacter baumannii isolate A; format: functional, organism-based
Acinetobacter baumannii [16] = test: Antimicrobial activity against colistin-resistant Acinetobacter baumannii 213 transconjugant with 16S rRNA methylase armA gene expressing Acinetobacter baumannii isolate B; format: functional, organism-based
Acinetobacter baumannii [17] = test: Antimicrobial activity against colistin-resistant Acinetobacter baumannii 213 transconjugant with 16S rRNA methylase armA gene expressing Acinetobacter baumannii isolate C; format: functional, organism-based

Question: With `NCC[C@H](O)C(=O)N[C@@H]1C[C@H](N)[C@@H](O[C@H]2O[C@H](CN)[C@@H](O)[C@H](O)[C@H]2O)[C@H](O)[C@H]1O[C@H]1O[C@H](CO)[C@@H](O)[C@H](N)[C@H]1O` [AMIKACIN] as the compound, how does the Activity (Acinetobacter baumannii [1]) read?
Answer: Its Activity is “Active”.

Question: And the Activity (Acinetobacter baumannii [2])?
Answer: Its Activity is “Active”.

Question: What about the MIC (Acinetobacter baumannii [3]) of the same compound?
Answer: Its MIC is greater than 512 µg/mL.

Question: What about the MIC (Acinetobacter baumannii [4]) of the same compound?
Answer: The MIC was greater than 512 µg/mL.

Question: And the MIC (Acinetobacter baumannii [5])?
Answer: Its MIC is greater than 512 µg/mL.

Question: What about the MIC (Acinetobacter baumannii [6]) of the same compound?
Answer: Its MIC is greater than 512 µg/mL.

Question: And the MIC (Acinetobacter baumannii [7])?
Answer: The MIC was greater than 512 µg/mL.

Question: And the MIC (Escherichia coli [8])?
Answer: Its MIC is no less than 256 µg/mL.

Question: What about the Activity (Acinetobacter baumannii [9]) of the same compound?
Answer: The Activity was “Active”.

Question: What about the Activity (Escherichia coli [10]) of the same compound?
Answer: The Activity was “Active”.

Question: What about the Activity (Escherichia coli [11]) of the same compound?
Answer: Its Activity is “Active”.

Question: What about the Activity (Escherichia coli [12]) of the same compound?
Answer: Its Activity is “Active”.

Question: What about the Activity (Escherichia coli [13]) of the same compound?
Answer: Its Activity is “Active”.

Question: What about the Activity (Escherichia coli [14]) of the same compound?
Answer: Its Activity is “Active”.

Question: What about the Activity (Acinetobacter baumannii [15]) of the same compound?
Answer: Its Activity is “Active”.

Question: What about the Activity (Acinetobacter baumannii [16]) of the same compound?
Answer: The Activity was “Active”.

Question: And the Activity (Acinetobacter baumannii [17])?
Answer: Its Activity is “Active”.

Question: For `NC[C@H]1O[C@H](O[C@H]2[C@H](O)[C@@H](O[C@H]3O[C@H](CO)[C@@H](O)[C@H](N)[C@H]3O)[C@H](N)C[C@@H]2N)[C@H](N)C[C@@H]1O` [TOBRAMYCIN], which MIC (Acinetobacter baumannii [3]) is on record?
Answer: Its MIC is greater than 512 µg/mL.

Question: What about the MIC (Acinetobacter baumannii [4]) of the same compound?
Answer: The MIC was greater than 512 µg/mL.

Question: What about the MIC (Acinetobacter baumannii [5]) of the same compound?
Answer: The MIC was greater than 512 µg/mL.

Question: What about the MIC (Acinetobacter baumannii [6]) of the same compound?
Answer: The MIC was greater than 512 µg/mL.

Question: What about the MIC (Acinetobacter baumannii [7]) of the same compound?
Answer: Its MIC is greater than 512 µg/mL.

Question: What about the MIC (Escherichia coli [8]) of the same compound?
Answer: Its MIC is no less than 256 µg/mL.

Question: Which results are given for GENTAMICIN?
Answer: MIC (Acinetobacter baumannii [3]): > 512 µg/mL; MIC (Acinetobacter baumannii [4]): > 512 µg/mL; MIC (Acinetobacter baumannii [5]): > 512 µg/mL; MIC (Acinetobacter baumannii [6]): > 512 µg/mL; MIC (Acinetobacter baumannii [7]): > 512 µg/mL; MIC (Escherichia coli [8]): > 256 µg/mL
